From patent US12084419B2, “Cell metabolism modulating compounds and uses thereof” (CRESCENTA BIOSCIENCES, priority 2020, dated 2024) come the findings set out here.

In the assay the target is T1, His6 tagged human recombinant FABP4 (Homo sapiens, UniProt P15090).
T1 construct: purchased Cayman Chemicals 10009549
As to the kind of experiment: FABP4 TR-FRET assay: displacement of BODIPY FL C12 fatty acid. As to conditions: triplicates, inhibition of BODIPY FL C12 binding; for inhibition at 1 µM: 1 μM compound; for inhibition at 10 µM: 10 μM compound. In a few lines: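 TR-FRET with a Tb anti-His6 antibody donor and BODIPY FL C12 as acceptor; compounds came from 0.362 and 0.0362 mM DMSO stocks. Protein (83 nM) and antibody (49.6 nM) solutions were premixed 30 min on ice in 25 mM Tris pH 7.4 with γ-globulins, NP-40 and DTT. Incubation was 10 min at room temperature; inhibition came from the 520/615 nm ratio.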

Each structure is given as a SMILES string.

T1 sequence (P15090 whole entry): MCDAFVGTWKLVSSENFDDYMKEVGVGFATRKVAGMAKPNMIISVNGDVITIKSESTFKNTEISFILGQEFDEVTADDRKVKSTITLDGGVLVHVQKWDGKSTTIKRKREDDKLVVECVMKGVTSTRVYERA

Take `CCCCC1CCCc2c1c1cccc(C(=O)O)c1n2Cc1cccc(C(N)=O)c1` (centres unmarked) [4-butyl-9-[(3-carbamoylphenyl)methyl]-2,3,4,9-tetrahydro-1H-carbazole-8-carboxylic acid]: the inhibition at 1 µM stood at 43.3% and the inhibition at 10 µM was 83.4%. Take `NC(=O)c1cccc(Cn2c3c(c4cccc(C(=O)O)c42)CCCC(CCc2ccccc2)C3)c1` (centres unmarked) [5-[(3-carbamoylphenyl)methyl]-7-(2-phenylethyl)-5H,6H,7H,8H,9H,10H-cyclohepta[b]indole-4-carboxylic acid]: the inhibition at 1 µM was 99.1% and the inhibition at 10 µM worked out at 98%. Consider `CCCCCCC1CCCc2c(n(Cc3ccccc3C)c3c(C(=O)O)cccc23)C1` (centres unmarked) [7-hexyl-5-[(2-methylphenyl)methyl]-5H,6H,7H,8H,9H,10H-cyclohepta[b]indole-4-carboxylic acid], for which the inhibition at 1 µM turned out to be 92.7% and the inhibition at 10 µM was 84.2%.

Take `CCCCC1CCCc2c(n(Cc3cccc(C#N)c3)c3c(C(=O)NCC(=O)O)cccc23)C1` (centres unmarked) [2-({7-butyl-5-[(3-cyanophenyl)methyl]-5H,6H,7H,8H,9H,10H-cyclohepta[b]indol-4-yl}formamido)acetic acid]: the inhibition at 1 µM worked out at 8.61% and the inhibition at 10 µM was found to be 41%.

For `CCCCCC1CCCc2c1c1cccc(C(=O)O)c1n2Cc1cccc(C#N)c1` (centres unmarked) [9-[(3-cyanophenyl)methyl]-4-pentyl-2,3,4,9-tetrahydro-1H-carbazole-8-carboxylic acid], the inhibition at 1 µM came out at 26.3% and the inhibition at 10 µM is 73.7%. As to `CCCCCCC1CCCc2c(n(Cc3ccc(F)cc3)c3c(C(=O)O)cccc23)C1` (centres unmarked) [5-[(4-fluorophenyl)methyl]-7-hexyl-5H,6H,7H,8H,9H,10H-cyclohepta[b]indole-4-carboxylic acid], the inhibition at 1 µM worked out at 74.4% and the inhibition at 10 µM stood at 77.6%. With `CCCCCCC1CCCc2c(n(C(=O)c3cccc(C#N)c3)c3c(C(=O)O)cccc23)C1` (centres unmarked) [5-(3-cyanobenzoyl)-7-hexyl-5H,6H,7H,8H,9H,10H-cyclohepta[b]indole-4-carboxylic acid], the inhibition at 1 µM turned out to be 87.1% and the inhibition at 10 µM is 88.5%.

On to `CCCCCC1Cc2c(n(Cc3cccc(C#N)c3)c3c(C(=O)O)cccc23)C1` (centres unmarked) [4-[(3-cyanophenyl)methyl]-2-pentyl-1H,2H,3H,4H-cyclopenta[b]indole-5-carboxylic acid], for which the inhibition at 1 µM is 39.5% and the inhibition at 10 µM stood at 78.3%. Turning to `CCCCCCC1CCCc2c(n(Cc3ccccc3C(N)=O)c3c(C(=O)O)cccc23)C1` (centres unmarked) [5-[(2-carbamoylphenyl)methyl]-7-hexyl-5H,6H,7H,8H,9H,10H-cyclohepta[b]indole-4-carboxylic acid], the inhibition at 1 µM was found to be 79.2% and the inhibition at 10 µM turned out to be 82%.

For the molecule `CCCCCC1CCCc2c(n(Cc3cccc(C#N)c3)c3c(C(=O)O)cccc23)C1` (centres unmarked) [5-[(3-cyanophenyl)methyl]-7-pentyl-5H,6H,7H,8H,9H,10H-cyclohepta[b]indole-4-carboxylic acid], the inhibition at 1 µM is 100% and the inhibition at 10 µM turned out to be 96.1%. Consider `CCCCCCC1CCCc2c(n(Cc3cccc(C(=O)O)c3)c3c(C(=O)O)cccc23)C1` (centres unmarked) [5-[(3-carboxyphenyl)methyl]-7-hexyl-5H,6H,7H,8H,9H,10H-cyclohepta[b]indole-4-carboxylic acid], for which the inhibition at 1 µM came to 89.8% and the inhibition at 10 µM was found to be 89.2%.

`CCCCCCC1CCCc2c(n(Cc3cncc(C#N)c3)c3c(C(=O)O)cccc23)C1` (centres unmarked) [5-[(5-cyanopyridin-3-yl)methyl]-7-hexyl-5H,6H,7H,8H,9H,10H-cyclohepta[b]indole-4-carboxylic acid]: the inhibition at 1 µM was 90.5% and the inhibition at 10 µM stood at 91.8%.

Turning to `CCC1CCCc2c1n(Cc1cccc(C#N)c1)c1c(C(=O)O)cccc21` (centres unmarked) [9-[(3-cyanophenyl)methyl]-1-ethyl-2,3,4,9-tetrahydro-1H-carbazole-8-carboxylic acid], the inhibition at 1 µM turned out to be 44.2% and the inhibition at 10 µM is 87.6%. As for `CCCCCCC1CCCc2c(n(Cc3ccccc3C#N)c3c(C(=O)O)cccc23)C1` (centres unmarked) [5-[(2-cyanophenyl)methyl]-7-hexyl-5H,6H,7H,8H,9H,10H-cyclohepta[b]indole-4-carboxylic acid], the inhibition at 10 µM amounted to 88.6%. With `CCCCCC1CCCCc2c1c1cccc(C(=O)O)c1n2Cc1cccc(C(N)=O)c1` (centres unmarked) [5-[(3-carbamoylphenyl)methyl]-10-pentyl-5H,6H,7H,8H,9H,10H-cyclohepta[b]indole-4-carboxylic acid], the inhibition at 1 µM was found to be 81.1% and the inhibition at 10 µM amounted to 96.1%. Turning to `CCCCCCC1CCCc2c(n(Cc3ccc4ocnc4c3)c3c(C(=O)O)cccc23)C1` (centres unmarked) [5-[(1,3-benzoxazol-5-yl)methyl]-7-hexyl-5H,6H,7H,8H,9H,10H-cyclohepta[b]indole-4-carboxylic acid], the inhibition at 10 µM worked out at 88.5%. In the case of `CCCCC1CCCc2c1c1cccc(C(=O)O)c1n2Cc1cccc(C#N)c1` (centres unmarked) [4-butyl-9-[(3-cyanophenyl)methyl]-2,3,4,9-tetrahydro-1H-carbazole-8-carboxylic acid], the inhibition at 1 µM came out at 25.3% and the inhibition at 10 µM came out at 65.5%.

For the molecule `CCC1CCCc2c(n(Cc3cccc(C(N)=O)c3)c3c(C(=O)O)cccc23)C1` (centres unmarked) [5-[(3-carbamoylphenyl)methyl]-7-ethyl-5H,6H,7H,8H,9H,10H-cyclohepta[b]indole-4-carboxylic acid], the inhibition at 1 µM amounted to 91.8% and the inhibition at 10 µM was found to be 100%. In the case of `CCCCCCC1CCc2c(n(Cc3ccnc(OC)c3)c3c(C(=O)O)cccc23)C1` (centres unmarked) [2-hexyl-9-[(2-methoxypyridin-4-yl)methyl]-2,3,4,9-tetrahydro-1H-carbazole-8-carboxylic acid], the inhibition at 1 µM amounted to 44.2% and the inhibition at 10 µM came out at 77.8%. Turning to `CCCC1CCc2c(c3cccc(C(=O)O)c3n2Cc2cccc(C(N)=O)c2)C1` (centres unmarked) [9-[(3-carbamoylphenyl)methyl]-3-propyl-2,3,4,9-tetrahydro-1H-carbazole-8-carboxylic acid], the inhibition at 1 µM amounted to 87.3% and the inhibition at 10 µM was determined as 99.2%.

As a reminder, the inhibition is the drop in the measured response relative to a control, in per cent.
